From patent US20200077656A1, “Use of an Acyclic Picolinamide Compound as a Fungicide for Control of Phytopathogenic Fungi in Row Crops” (priority 2017, published 2020)
Where two headings read alike, the source gives them in different places.

How the values were obtained:
[1] = tested on: Blumeria graminis f. sp. tritici; experiment: Field assessment of Blumeria graminis f. sp. tritici (ERYSGT) on wheat; type: in vivo
Method: Field Assessment of Blumeria graminis f sp. […] Disease severity was recorded as a percentage of visual diseased foliage on whole plot. […] infection was assessed three times at 12, 19 and 26 days after the last application. The disease infection was recorded following EPPO PP1/26 guideline prescriptions. Area under the disease progress curve (AUDPC) was calculated for each plot using the sets of recorded severity data. Relative AUDPC (% control based on AUDPC) was calculated as percent of the nontreated control.

[2] = tested on: soybean (GLYMX, Glycine max); experiment: Yield of soybean in Cercospora sojina field trials; type: in vivo; conditions: harvest at crop maturity
Magnaporthe grisea = type: in vivo; conditions: two applications, EC + Trycol adjuvant, rice
Puccinia polysora = experiment: Field assessment of Puccinia polysora (PUCCPY) in corn; type: in vivo; conditions: EC + Trycol adjuvant
Sclerotium rolfsii = experiment: Field assessment of Sclerotium rolfsii (SCLORO) in peanut, percent stem incidence; conditions: 42 DAAD, untreated 41.8
Method: Four applications, at two week intervals were made to each trial, starting at growth stage BBCH66 and continuing through BBCH84. The experimental plots were conducted with natural infestation of the pathogen. The treatment was part of an experimental trial designed as a randomized complete block (RCB) with four replications and a plot of approximately 6×40 ft.
Percent stem incidence (percent of stems with any disease, based on 80 stems counted per plot) was assessed at 42 days after application D (42 DAAD).

Pyrenophora teres [3] = experiment: Field assessment of Pyrenophora teres (PYRNTE) on barley, Trial 1 (inoculated); type: in vivo; conditions: EC + Trycol
Source text: Field Assessment of Pyrenophora teres ([…]) on Barley: A fungicidal treatment containing an EC formulation of compound I, tanked mixed with an adjuvant (Trycol, 50% w/w at 0.1% v/v), was sprayed on barley plants (spring barley; […] variety) twice, the first application at BBCH 37-43 growth stages of spring barley (0.01% infection on L1 at application) and the second application at growth stages 53-57 of spring barley (6.25% infection at application). […] The experimental plots were inoculated with net blotch of barley (1,000,000 spores/mL) at growth stage 39 of spring barley 1 day after the first […]. […] Disease severity was recorded as a percentage of visual diseased foliage on whole plot. Net blotch of barley infection was assessed three times at 7, 14 and 21 days after the last application. The disease infection was recorded following EPPO PP1/26 guideline prescriptions. Area under the disease progress curve (AUDPC) was calculated for each plot using the sets of recorded severity data. Relative AUDPC (% control based on AUDPC) was calculated as percent of the nontreated control.

[4] = tested on: peanut (ARHHY, Arachis hypogaea); experiment: Yield of peanut in Sclerotium rolfsii field trials; type: in vivo; conditions: 49 DAAD
Cercospora arachidicola = experiment: Field assessment of Cercospora arachidicola (MYCOAR) in peanut; type: in vivo; conditions: Table 8, early leaf spot of peanut, AUDPC based
Pyrenophora teres [5] = experiment: Field assessment of Pyrenophora teres (PYRNTE) on barley, Trial 2 (natural infection); type: in vivo; conditions: EC + Trycol; for % Control (AUDPC) of PYRNTE, Trial 2: barley
Method: Compound I was applied at a water volume of 200 L/ha under natural infection of Pyrenophora teres. Disease severity was recorded as a percentage of visual diseased foliage on whole plot. Net blotch of barley infection was assessed three times at 7, 14 and 21 days after the last application. The disease infection was recorded following EPPO PP1/26 guideline prescriptions. Area under the disease progress curve (AUDPC) was calculated for each plot using the sets of recorded severity data. Relative AUDPC (% control based on AUDPC) was calculated as percent of the nontreated control.

Cercospora zeae-maydis = experiment: Field assessment of Cercospora zeae-maydis (CERCZM) in corn; type: in vivo; conditions: EC + Trycol adjuvant
Method: Field Assessment of Cercospora zeae-Maydis (CERCZM) in Corn: […] The experimental plots were inoculated with grey leaf spot 24 hr after application. […] Disease severity (percentage of visual diseased foliage on whole plot) was assessed five times during the trial (22-50 days after application, DAA). The disease infection was recorded following EPPO PP1/26 guideline prescriptions. Area under the disease progress curve (AUDPC) was calculated for each plot using the sets of recorded severity data. Relative AUDPC (% control based on AUDPC) was calculated as percent of the nontreated control.

[6] = 50 g/ha, Agnique BP420 200 mL/ha
[7] = 75 g/ha, Agnique BP420 300 mL/ha
[8] = 100 g/ha, Adsee C80W 80% 250 g/ha
[9] = 100 g/ha, Agnique BP420 400 mL/ha
[10] = 150 g/ha, Agnique BP420 600 mL/ha

Structure (SMILES): COc1ccnc(C(=O)N[C@@H](C)C(=O)O[C@@H](C)C(c2ccc(F)cc2)c2ccc(F)cc2)c1OC(C)=O [Compound I, (S)-1,1-bis(4-fluorophenyl)propan-2-yl (3-acetoxy-4-methoxypicolinoyl)-L-alaninate]
- % Control (AUDPC) of ERYSGT ([1]; 5 g ai/ha, EC + Agnique BP-420): C (26-50)
- % Control (AUDPC) of ERYSGT ([1]; 5 g ai/ha, SC + Agnique BP-420): C (26-50)
- % Control (AUDPC) of ERYSGT ([1]; 20 g ai/ha, EC + Agnique BP-420): A (76-100)
- % Control (AUDPC) of ERYSGT ([1]; 20 g ai/ha, SC + Agnique BP-420): B (51-75)
- % Control (AUDPC) of ERYSGT ([1]; 40 g ai/ha, EC + Agnique BP-420): A (76-100)
- % Control (AUDPC) of ERYSGT ([1]; 40 g ai/ha, SC + Agnique BP-420): A (76-100)
- % Control (AUDPC) of ERYSGT ([1]; 60 g ai/ha, EC + Agnique BP-420): A (76-100)
- % Control (AUDPC) of ERYSGT ([1]; 60 g ai/ha, SC + Agnique BP-420): A (76-100)
- % Control (AUDPC) of ERYSGT ([1]; 80 g ai/ha, EC + Agnique BP-420): A (76-100)
- % Control (AUDPC) of ERYSGT ([1]; 80 g ai/ha, SC + Agnique BP-420): A (76-100)
- % Control (AUDPC) of ERYSGT ([1]; 120 g ai/ha, EC + Agnique BP-420): A (76-100)
- % Control (AUDPC) of ERYSGT ([1]; 120 g ai/ha, SC + Agnique BP-420): A (76-100)
- GLXMA Yield Percent of Untreated [2, 6]: 117.0%
- GLXMA Yield Percent of Untreated ([2]; 50 g/ha, MSO 100 g/ha): 108.0%
- GLXMA Yield Percent of Untreated [2, 7]: 119.2%
- GLXMA Yield Percent of Untreated ([2]; 75 g/ha, MSO 150 g/ha): 114.6%
- GLXMA Yield Percent of Untreated [2, 8]: 115.3%
- GLXMA Yield Percent of Untreated [2, 9]: 117.6%
- GLXMA Yield Percent of Untreated ([2]; 100 g/ha, MSO 200 g/ha): 113.4%
- GLXMA Yield Percent of Untreated [2, 10]: 114.8%
- GLXMA Yield Percent of Untreated ([2]; 150 g/ha, MSO 300 g/ha): 112.9%
- Disease control of PYRIOR, percent control based on AUDPC (Magnaporthe grisea; 50 g ai/ha): C (26-50)
- Disease control of PYRIOR, percent control based on AUDPC (Magnaporthe grisea; 100 g ai/ha): C (26-50)
- Disease control of PYRIOR, percent control based on AUDPC (Magnaporthe grisea; 150 g ai/ha): B (51-75)
- Disease control of PYRIOR, percent control based on AUDPC (Magnaporthe grisea; 200 g ai/ha): B (51-75)
- Disease control of PUCCPY, percent control based on AUDPC (Puccinia polysora; 50 g ai/ha): C (26-50)
- Disease control of PUCCPY, percent control based on AUDPC (Puccinia polysora; 100 g ai/ha): B (51-75)
- Disease control of PUCCPY, percent control based on AUDPC (Puccinia polysora; 150 g ai/ha): B (51-75)
- Calc Percent Stem Incidence of SCLORO (Sclerotium rolfsii; [6]): 41.6%
- Calc Percent Stem Incidence of SCLORO (Sclerotium rolfsii; 50 g/ha, MSO 100 g/ha): 39.1%
- Calc Percent Stem Incidence of SCLORO (Sclerotium rolfsii; [7]): 33.2%
- Calc Percent Stem Incidence of SCLORO (Sclerotium rolfsii; 75 g/ha, MSO 150 g/ha): 33.0%
- Calc Percent Stem Incidence of SCLORO (Sclerotium rolfsii; [9]): 27.9%
- Calc Percent Stem Incidence of SCLORO (Sclerotium rolfsii; 100 g/ha, MSO 200 g/ha): 28.2%
- Calc Percent Stem Incidence of SCLORO (Sclerotium rolfsii; [10]): 29.6%
- Calc Percent Stem Incidence of SCLORO (Sclerotium rolfsii; 150 g/ha, MSO 300 g/ha): 24.7%
- % Control (AUDPC) of PYRNTE, Trial 1 (Pyrenophora teres [3]; 75 g ai/ha): B (51-75)
- % Control (AUDPC) of PYRNTE, Trial 1 (Pyrenophora teres [3]; 100 g ai/ha): B (51-75)
- % Control (AUDPC) of PYRNTE, Trial 1 (Pyrenophora teres [3]; 150 g ai/ha): B (51-75)
- ARHHY Yield Percent of Untreated [4, 6]: 96.4%
- ARHHY Yield Percent of Untreated ([4]; 50 g/ha, MSO 100 g/ha): 104.9%
- ARHHY Yield Percent of Untreated [4, 7]: 113.9%
- ARHHY Yield Percent of Untreated ([4]; 75 g/ha, MSO 150 g/ha): 112.8%
- ARHHY Yield Percent of Untreated [4, 8]: 122.0%
- ARHHY Yield Percent of Untreated [4, 9]: 118.0%
- ARHHY Yield Percent of Untreated ([4]; 100 g/ha, MSO 200 g/ha): 115.7%
- ARHHY Yield Percent of Untreated [4, 10]: 130.0%
- ARHHY Yield Percent of Untreated ([4]; 150 g/ha, MSO 300 g/ha): 131.5%
- Calc Percent Control of MYCOAR (Cercospora arachidicola; [6]): 31.5%
- Calc Percent Control of MYCOAR (Cercospora arachidicola; 50 g/ha, MSO 100 g/ha): 32.0%
- Calc Percent Control of MYCOAR (Cercospora arachidicola; [7]): 35.6%
- Calc Percent Control of MYCOAR (Cercospora arachidicola; 75 g/ha, MSO 150 g/ha): 36.3%
- Calc Percent Control of MYCOAR (Cercospora arachidicola; [8]): 40.3%
- Calc Percent Control of MYCOAR (Cercospora arachidicola; [9]): 44.8%
- Calc Percent Control of MYCOAR (Cercospora arachidicola; 100 g/ha, MSO 200 g/ha): 44.4%
- Calc Percent Control of MYCOAR (Cercospora arachidicola; [10]): 57.7%
- Calc Percent Control of MYCOAR (Cercospora arachidicola; 150 g/ha, MSO 300 g/ha): 52.3%
- % Control (AUDPC) of PYRNTE, Trial 2 (Pyrenophora teres [5]; 50 g ai/ha): B (51-75)
- % Control (AUDPC) of PYRNTE, Trial 2 (Pyrenophora teres [5]; 100 g ai/ha): B (51-75)
- % Control (AUDPC) of PYRNTE, Trial 2 (Pyrenophora teres [5]; 150 g ai/ha): B (51-75)
- control of Pyrenophora teres on barley (in words) (Pyrenophora teres [5]; replicated field trial, 50, 100 and 150 g ai/ha, natural infection): useful levels of control
- Disease control of CERCZM, percent control based on AUDPC (Cercospora zeae-maydis; 50 g ai/ha): B (51-75)
- Disease control of CERCZM, percent control based on AUDPC (Cercospora zeae-maydis; 100 g ai/ha): B (51-75)
- Disease control of CERCZM, percent control based on AUDPC (Cercospora zeae-maydis; 150 g ai/ha): B (51-75)
